Source: patent US20080058373A1, “Compositions and Methods for Treating or Preventing Glaucoma or Progression Thereof” (priority 2006, published 2008)
Values joined by “and” are separate entries in the source; they are usually repeats but may differ in a detail not shown here. Equal entries are not always repeated.

How the values were obtained:
Format in all cases: in vivo
[1] = system: rabbit eye (anterior chamber paracentesis); assay: Pupillary diameter measurement, rabbit paracentesis model; conditions: for Pupillary diameter T1: −180 min: 50 μl drops, −180 min (basal); for Pupillary diameter T1: −180 min / Pupillary diameter T2: −5 min / Pupillary diameter T3: +115 min: single eyes; for Pupillary diameter T2: −5 min: 5 min before the first paracentesis; for Pupillary diameter T3: +115 min: 5 min before the second paracentesis; for Pupillary diameter Mean Δ(T3 − T1): group mean, n=8 eyes
Description: (§1) Each rabbit was placed in a restraint device and tagged with the alphanumeric code. The formulations were instilled (50 μl) into the conjunctival sac of both eyes 180, 120, 90 and 30 min before the first paracentesis; then 15, 30, 90 min after the first paracentesis. To perform the first paracentesis the animals were anaesthetized by intravenous injection of 5 mg/kg Zoletil® (Virbac; 2.5 mg/kg tiletamine HCl and 2.5 mg/kg zolazepam HCl) and one drop of local anesthetic (Novesina®, Novartis) was administered to the eye. Anterior chamber paracentesis was performed with a 26 G needle attached to a tuberculin syringe; the needle was introduced into the anterior chamber through the cornea, taking care not to damage the tissues. Two hours after the first paracentesis, the animals were sacrificed with 0.4 ml Tanax® (Intervet International B.V.) and the second paracentesis was performed. About 100 μl of aqueous humor were removed at the second paracentesis. Aqueous humor was immediately split in four aliquots and stored at −80° C. until analysis. Then both eyes were enucleated and the iris-ciliary body was carefully excised, placed in polypropylene tubes, and stored at −80° C. until analysis.
The pupillary diameter of both eyes was measured with a Castroviejo caliper 180 min and 5 min before the first paracentesis and 5 min before the second paracentesis.

Leukocytes (PMN) = Leukocytes (PMN) measurement in aqueous humor, rabbit paracentesis model; conditions: for PMN numbers in aqueous humor, Mean: second paracentesis, group mean
Description: as §1
For the determination of the number of leukocytes we used a haemocytometer (Improved Neubauer Chamber; Bright-line, Hausser Scientific) and a Polyvar 2 microscope (Reichert-Jung).

Myeloperoxidase (MPO) = Myeloperoxidase (MPO) activity in iris-ciliary body, rabbit paracentesis model; conditions: for MPO activity in iris-ciliary body, Mean / MPO activity in iris-ciliary body: samples collected after the second paracentesis; for MPO activity in iris-ciliary body, Mean: group mean; for Δ/min (mean of the slope of the line recorded every 15 sec for 5 min): 100 μl supernatant aliquot diluted to 3 ml; for Δ/min (mean of the slope of the line recorded every 15 sec for 5 min) / MPO activity in iris-ciliary body: individual eyes
Description: 3.9 g of NaH2PO4 2H2O were dissolved in a volumetric flask to 500 ml with water. The pH was adjusted to pH=6 with 3N NaOH.
0.5 g of hexa-decyl-trimethyl-ammonium bromide was dissolved in 100 ml phosphate buffer.
The solution was prepared freshly. Ten microliters of H2O2 (30 wt. %) were diluted to 1 ml with water (solution A). 7.5 mg o-dianisidine 2HCl was dissolved in 45 ml of phosphate buffer and 75 μl of solution A were added.
as §1
The activity of MPO was measured as previously described by Williams et al.[5] The iris-ciliary bodies were carefully dried, weighed and immersed in 1 ml of hexa-decyl-trimethyl-ammonium bromide solution. Then, the samples were sonicated for 10 sec on ice by a ultrasound homogenizer (HD 2070, Bandelin electronic), freeze-thawed three times, sonicated for 10 sec and centrifuged at 14,000 g for 10 min to remove cellular debris. An aliquot of the supernatant (40-200 μl) was diluted to 3 ml with the o-dianisidine 2HCl/H2O2 solution. The change in absorbance at 460 nm was continuously monitored for 5 min by a spectrophotometer (UV/Vis Spectrometer Lambda EZ 201; Perkin Elmer). The slope of the line (Δ/min) was determined for each sample and used to calculate the number of units of MPO in the tissue as follows:
Values were expressed as units of MPO/g of tissue.

Compound: C[C@@H]1C[C@H]2[C@@H]3CCC4=CC(=O)C=C[C@]4(C)[C@@]3(F)[C@@H](O)C[C@]2(C)[C@@]1(O)C(=O)CO [dexamethasone, reference compound]
- Pupillary diameter T1: −180 min ([1]; 0.1% topical, listed as Dex): 6.0 mm and 7.0 mm and 5.5 mm and 6.5 mm
- Pupillary diameter T2: −5 min ([1]; 0.1% topical, listed as Dex): 5.5 mm and 6.5 mm and 6.0 mm and 7.0 mm and 7.5 mm
- Pupillary diameter T3: +115 min ([1]; 0.1% topical, listed as Dex): 5.5 mm and 6.0 mm and 4.5 mm and 5.0 mm and 6.5 mm
- Pupillary diameter Mean Δ(T3 − T1) ([1]; 0.1% topical): −0.8 mm
- PMN numbers in aqueous humor, Mean (Leukocytes (PMN); 0.1% topical): 30.000 number/μl
- MPO activity in iris-ciliary body, Mean (Myeloperoxidase (MPO); 0.1% topical): 0.618 MPO Unit/g
- Δ/min (mean of the slope of the line recorded every 15 sec for 5 min) (Myeloperoxidase (MPO); 0.1% treatment, listed as Dex): 0.029 and 0.031 and 0.064 and 0.023 (2×) and 0.019 and 0.024 and 0.021
- MPO activity in iris-ciliary body (Myeloperoxidase (MPO); 0.1% treatment, listed as Dex): 0.71 Unit/g and 0.60 Unit/g and 1.32 Unit/g and 0.48 Unit/g (2×) and 0.39 Unit/g and 0.45 Unit/g and 0.51 Unit/g

Compound: Cc1ccc2c(NCC(O)(CC(C)(C)c3cc(F)cc4c3OCC4)C(F)(F)F)cccc2n1 (stereo not drawn)
- Pupillary diameter T1: −180 min ([1]; 0.1% topical, listed as BOL): 6.5 mm and 7.0 mm and 7.5 mm
- Pupillary diameter T2: −5 min ([1]; 0.1% topical, listed as BOL): 6.5 mm and 7.0 mm and 7.5 mm
- Pupillary diameter T3: +115 min ([1]; 0.1% topical, listed as BOL): 5.0 mm and 6.0 mm and 6.5 mm and 5.5 mm
- Pupillary diameter Mean Δ(T3 − T1) ([1]; 0.1% topical): −1.1 mm
- Pupillary diameter T1: −180 min ([1]; 0.5% topical, listed as BOL): 8.0 mm and 7.0 mm and 7.5 mm
- Pupillary diameter T2: −5 min ([1]; 0.5% topical, listed as BOL): 8.0 mm and 7.0 mm and 7.5 mm
- Pupillary diameter T3: +115 min ([1]; 0.5% topical, listed as BOL): 6.5 mm and 6.0 mm and 7.0 mm
- Pupillary diameter Mean Δ(T3 − T1) ([1]; 0.5% topical): −1.0 mm
- Pupillary diameter T1: −180 min ([1]; 1% topical, listed as BOL): 6.0 mm and 6.5 mm
- Pupillary diameter T2: −5 min ([1]; 1% topical, listed as BOL): 6.0 mm and 6.5 mm and 7.0 mm
- Pupillary diameter T3: +115 min ([1]; 1% topical, listed as BOL): 5.5 mm and 5.0 mm and 6.0 mm
- Pupillary diameter Mean Δ(T3 − T1) ([1]; 1% topical): −0.9 mm
- PMN numbers in aqueous humor, Mean (Leukocytes (PMN); 0.1% topical): 28.333 number/μl
- PMN numbers in aqueous humor, Mean (Leukocytes (PMN); 0.5% topical): 21.250 number/μl
- PMN numbers in aqueous humor (raw data) (Leukocytes (PMN); 1% topical, samples collected at the second paracentesis, single eyes, listed as BOL): 30 number/μl and 20 number/μl and 40 number/μl
- PMN numbers in aqueous humor, Mean (Leukocytes (PMN); 1% topical): 28.750 number/μl
- MPO activity in iris-ciliary body, Mean (Myeloperoxidase (MPO); 0.1% topical): 0.971 MPO Unit/g
- Δ/min (mean of the slope of the line recorded every 15 sec for 5 min) (Myeloperoxidase (MPO); 0.1% treatment, listed as BOL): 0.051 and 0.042 (2×) and 0.045 and 0.050 and 0.031 (2×) and 0.036
- MPO activity in iris-ciliary body (Myeloperoxidase (MPO); 0.1% treatment, listed as BOL): 1.04 Unit/g and 1.00 Unit/g and 1.14 Unit/g and 1.06 Unit/g and 1.22 Unit/g and 0.61 Unit/g and 1.05 Unit/g and 0.65 Unit/g
- MPO activity in iris-ciliary body, Mean (Myeloperoxidase (MPO); 0.5% topical): 0.775 MPO Unit/g
- Δ/min (mean of the slope of the line recorded every 15 sec for 5 min) (Myeloperoxidase (MPO); 0.5% treatment, listed as BOL): 0.044 and 0.040 and 0.031 and 0.049 and 0.033 and 0.034 and 0.022 and 0.026
- MPO activity in iris-ciliary body (Myeloperoxidase (MPO); 0.5% treatment, listed as BOL): 0.85 Unit/g and 0.93 Unit/g and 0.79 Unit/g and 1.03 Unit/g and 0.75 Unit/g and 0.74 Unit/g and 0.54 Unit/g and 0.58 Unit/g
- MPO activity in iris-ciliary body, Mean (Myeloperoxidase (MPO); 1% topical): 0.542 MPO Unit/g
- Δ/min (mean of the slope of the line recorded every 15 sec for 5 min) (Myeloperoxidase (MPO); 1% treatment, listed as BOL): 0.024 and 0.033 and 0.017 and 0.018 (2×) and 0.016 and 0.052 and 0.013
- MPO activity in iris-ciliary body (Myeloperoxidase (MPO); 1% treatment, listed as BOL): 0.66 Unit/g and 0.68 Unit/g and 0.49 Unit/g and 0.40 Unit/g and 0.34 Unit/g and 1.02 Unit/g and 0.31 Unit/g and 0.43 Unit/g
